Test results from US9365572B2, “PI3K and/or mTOR inhibitor” (XUANZHU PHARMA CO., LTD., priority 2012, dated 2016).

Key:
Interleukin IL-1 = Interleukin IL-1 (Mus musculus (Mouse), UniProt P13504); experiment: Radioligand binding assay No. 243520; settings: test substance 10 μM, read-out: Inhibitory rate (%), Interleukin IL-1
[1] = system: non-kinase drug target ligands listed in Table 5; experiment: Drug target radioligand competitive binding assay, whole panel of Table 5; settings: test substance 10 μM, summary of Table 5
[2] = biological target: Transporter, Norepinephrine (NET) (Homo sapiens (Human), UniProt P23975); experiment: Radioligand binding assay No. 204410; settings: test substance 10 μM, read-out: Inhibitory rate (%), Transporter, Norepinephrine (NET)
Transporter, Norepinephrine (NET), sequence (P23975 whole entry): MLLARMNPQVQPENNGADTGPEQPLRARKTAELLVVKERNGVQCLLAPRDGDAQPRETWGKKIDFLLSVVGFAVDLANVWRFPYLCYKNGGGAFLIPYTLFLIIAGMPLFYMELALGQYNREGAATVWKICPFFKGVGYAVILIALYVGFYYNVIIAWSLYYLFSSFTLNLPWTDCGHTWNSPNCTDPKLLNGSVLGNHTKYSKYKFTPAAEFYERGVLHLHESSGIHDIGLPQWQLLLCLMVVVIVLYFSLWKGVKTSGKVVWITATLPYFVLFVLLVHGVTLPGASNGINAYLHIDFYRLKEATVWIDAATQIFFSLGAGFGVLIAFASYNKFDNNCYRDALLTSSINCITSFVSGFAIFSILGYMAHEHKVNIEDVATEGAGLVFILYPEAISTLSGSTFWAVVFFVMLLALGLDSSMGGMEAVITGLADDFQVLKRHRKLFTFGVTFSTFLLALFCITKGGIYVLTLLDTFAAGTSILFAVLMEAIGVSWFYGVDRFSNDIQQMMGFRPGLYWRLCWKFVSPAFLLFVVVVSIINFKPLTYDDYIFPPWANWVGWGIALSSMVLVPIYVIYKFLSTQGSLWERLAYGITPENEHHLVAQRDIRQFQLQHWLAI

[3] = biological target: Transporter, Dopamine (DAT) (Homo sapiens (Human), UniProt Q01959); experiment: Radioligand binding assay No. 220320; settings: test substance 10 μM, read-out: Inhibitory rate (%), Transporter, Dopamine (DAT)
Transporter, Dopamine (DAT), sequence (Q01959 whole entry): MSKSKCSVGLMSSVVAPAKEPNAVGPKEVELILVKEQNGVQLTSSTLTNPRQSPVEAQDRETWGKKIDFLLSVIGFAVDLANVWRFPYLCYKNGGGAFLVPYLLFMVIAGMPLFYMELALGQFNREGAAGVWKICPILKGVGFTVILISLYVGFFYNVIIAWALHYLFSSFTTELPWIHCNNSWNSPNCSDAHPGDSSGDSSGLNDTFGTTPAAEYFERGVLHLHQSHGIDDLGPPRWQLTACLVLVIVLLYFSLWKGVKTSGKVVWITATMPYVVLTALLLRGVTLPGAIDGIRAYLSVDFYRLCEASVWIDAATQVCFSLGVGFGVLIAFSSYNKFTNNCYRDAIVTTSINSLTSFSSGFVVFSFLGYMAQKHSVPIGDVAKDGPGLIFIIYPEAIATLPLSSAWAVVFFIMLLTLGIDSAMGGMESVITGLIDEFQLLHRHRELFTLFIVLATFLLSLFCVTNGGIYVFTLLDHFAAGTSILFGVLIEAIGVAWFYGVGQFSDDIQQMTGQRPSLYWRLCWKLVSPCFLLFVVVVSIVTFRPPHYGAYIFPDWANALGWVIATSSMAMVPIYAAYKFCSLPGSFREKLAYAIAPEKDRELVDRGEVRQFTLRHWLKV

Phorbol Ester = experiment: Radioligand binding assay No. 264500; settings: test substance 10 μM; mouse
Lovo = experiment: In vitro cytological inhibitory activity (XTT); format: cell-based; settings: Homo sapiens, 72 hrs
Experimental: Lovo: Human colon carcinoma cell line;
(§1) 1. Preparation of agents and compounds:
(§2) • 1.1 Preparation of phosphoric acid buffering solution (PBS): 8 g NaCl, 0.2 g KCl, 1.44 g Na2HPO4 and 0.24 g KH2PO4 were weighed and added to 800 mL ultrapure water. The mixture was adjusted to pH=7.4, and ultrapure water was added to the metered volume of IL. Then the autoclaving was conducted for 20 mins. • 1.2 Preparation of XTT detection working solution: 100 mg (2,3-Bis-(2-methoxy-4-nitro-5-sulfophenyl)-2H-tetrazolium-5-carboxanilide); 2,3-bis(2-methoxy-4-nitro-5-sulfophenyl)-5-[(phenylamino)carbonyl]-2H-tetrazolium hydroxide (XTT) powder was weighed, and dissolved under protection from light 300 mL of phenol red-free and serum-free RPMI1640 culture, which had been warmed up to 50° C. The resulting mixture was filtered, packaged and used immediately or in one week. The complete process was conducted under protection from light. • 1.3 Preparation of the test compound • Preparation of the stock solution of the test compound: The test compound powder was dissolved in DMSO in a concentration of 10 mM. • Preparation of the gradiently diluted solution of the test compound: 10 mM of the stock solution of the test compound was successively and gradiently diluted with DMSO by 4 folds for 10 concentrations. […]

Prostanoid EP4 = Prostanoid EP4 (Homo sapiens (Human), UniProt P35408); experiment: Radioligand binding assay No. 268420; settings: test substance 10 μM, read-out: Inhibitory rate (%), Prostanoid EP4
Prostanoid EP4, sequence (P35408 whole entry): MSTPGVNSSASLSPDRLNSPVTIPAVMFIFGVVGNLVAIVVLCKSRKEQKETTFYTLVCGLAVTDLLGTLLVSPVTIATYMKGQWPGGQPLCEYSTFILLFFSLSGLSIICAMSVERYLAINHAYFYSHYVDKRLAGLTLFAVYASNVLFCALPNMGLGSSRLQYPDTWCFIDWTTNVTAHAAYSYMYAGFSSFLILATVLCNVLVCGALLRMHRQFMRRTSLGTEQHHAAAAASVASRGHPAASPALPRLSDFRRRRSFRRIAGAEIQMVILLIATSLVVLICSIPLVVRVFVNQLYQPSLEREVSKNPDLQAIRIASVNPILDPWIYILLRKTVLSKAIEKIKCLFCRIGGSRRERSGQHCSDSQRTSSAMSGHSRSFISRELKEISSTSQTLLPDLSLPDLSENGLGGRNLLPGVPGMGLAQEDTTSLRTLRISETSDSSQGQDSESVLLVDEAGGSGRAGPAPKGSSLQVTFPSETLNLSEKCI

Glutamate, NMDA, Glycine = Glutamate, NMDA, Glycine (Rattus norvegicus (Rat), UniProt P35439); experiment: Radioligand binding assay No. 232910; settings: test substance 10 μM, read-out: Inhibitory rate (%), Glutamate, NMDA, Glycine
[4] = system: Calcium Channel L-Type, Benzothiazepine; experiment: Radioligand binding assay No. 214510; settings: test substance 10 μM; rat
Adrenergic α1A = Adrenergic α1A (Rattus norvegicus (Rat), UniProt P43140); experiment: Radioligand binding assay No. 203100; settings: test substance 10 μM, read-out: Inhibitory rate (%), Adrenergic α1A
Adrenergic α1A, sequence (P43140 whole entry): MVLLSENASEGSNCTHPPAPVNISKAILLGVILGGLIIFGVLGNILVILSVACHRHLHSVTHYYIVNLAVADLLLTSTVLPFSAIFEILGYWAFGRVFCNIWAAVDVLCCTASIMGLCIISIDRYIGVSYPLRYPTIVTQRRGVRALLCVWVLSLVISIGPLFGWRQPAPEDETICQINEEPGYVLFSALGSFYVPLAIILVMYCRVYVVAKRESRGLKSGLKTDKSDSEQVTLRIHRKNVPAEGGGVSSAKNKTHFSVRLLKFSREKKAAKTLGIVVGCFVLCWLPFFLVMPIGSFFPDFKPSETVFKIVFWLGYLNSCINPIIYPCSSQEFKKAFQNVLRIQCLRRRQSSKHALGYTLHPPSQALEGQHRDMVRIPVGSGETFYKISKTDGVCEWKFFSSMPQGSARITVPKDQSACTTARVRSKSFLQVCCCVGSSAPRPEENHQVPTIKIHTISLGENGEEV

MCF-7 = experiment: In vitro cytological inhibitory activity (XTT); format: cell-based; settings: Homo sapiens, MCF7, 72 hrs
Experimental: MCF-7: Human breast carcinoma cell line;
as §1, §2

[5] = biological target: Serotonin (5-Hydroxytryptamine) 5-HT1A (Homo sapiens (Human), UniProt P08908); experiment: Radioligand binding assay No. 271110; settings: test substance 10 μM, read-out: Inhibitory rate (%), Serotonin (5-Hydroxytryptamine) 5-HT1A
Serotonin (5-Hydroxytryptamine) 5-HT1A, sequence (P08908 whole entry): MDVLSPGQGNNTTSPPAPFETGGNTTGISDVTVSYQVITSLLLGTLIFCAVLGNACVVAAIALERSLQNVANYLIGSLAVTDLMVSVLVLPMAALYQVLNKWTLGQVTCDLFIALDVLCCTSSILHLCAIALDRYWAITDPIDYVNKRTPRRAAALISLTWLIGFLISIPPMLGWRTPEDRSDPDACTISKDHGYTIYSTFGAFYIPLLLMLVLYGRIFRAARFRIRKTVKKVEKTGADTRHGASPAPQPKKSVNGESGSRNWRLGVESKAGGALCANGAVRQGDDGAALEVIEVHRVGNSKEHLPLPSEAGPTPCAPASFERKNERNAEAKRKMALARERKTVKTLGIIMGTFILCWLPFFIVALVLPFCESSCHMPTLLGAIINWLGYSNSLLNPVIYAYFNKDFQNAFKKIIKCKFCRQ

Bradykinin B2 = Bradykinin B2 (Homo sapiens (Human), UniProt P30411); experiment: Radioligand binding assay No. 212620; settings: test substance 10 μM, read-out: Inhibitory rate (%), Bradykinin B2
Bradykinin B2, sequence (P30411 whole entry): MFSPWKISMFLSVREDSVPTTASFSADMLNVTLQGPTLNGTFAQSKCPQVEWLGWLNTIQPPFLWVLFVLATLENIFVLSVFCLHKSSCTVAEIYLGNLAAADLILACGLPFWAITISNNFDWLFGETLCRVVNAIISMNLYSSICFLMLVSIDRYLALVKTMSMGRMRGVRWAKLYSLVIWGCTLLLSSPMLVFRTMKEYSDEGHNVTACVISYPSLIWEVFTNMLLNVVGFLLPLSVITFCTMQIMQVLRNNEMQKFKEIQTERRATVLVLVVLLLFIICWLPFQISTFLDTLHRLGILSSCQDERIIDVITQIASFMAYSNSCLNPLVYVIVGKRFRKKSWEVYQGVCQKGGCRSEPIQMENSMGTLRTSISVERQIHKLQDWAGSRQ

GABAA, Muscimol, Central = experiment: Radioligand binding assay No. 226500; settings: test substance 10 μM; rat
[6] = system: GABAA, Flunitrazepam, Central; experiment: Radioligand binding assay No. 226600; settings: test substance 10 μM; rat
Nicotinic Acetylcholine = experiment: Radioligand binding assay No. 258590; settings: test substance 10 μM; Human
Neuropeptide Y Y2 = Neuropeptide Y Y2 (Homo sapiens (Human), UniProt P49146); experiment: Radioligand binding assay No. 257110; settings: test substance 10 μM, read-out: Inhibitory rate (%), Neuropeptide Y Y2
Neuropeptide Y Y2, sequence (P49146 whole entry): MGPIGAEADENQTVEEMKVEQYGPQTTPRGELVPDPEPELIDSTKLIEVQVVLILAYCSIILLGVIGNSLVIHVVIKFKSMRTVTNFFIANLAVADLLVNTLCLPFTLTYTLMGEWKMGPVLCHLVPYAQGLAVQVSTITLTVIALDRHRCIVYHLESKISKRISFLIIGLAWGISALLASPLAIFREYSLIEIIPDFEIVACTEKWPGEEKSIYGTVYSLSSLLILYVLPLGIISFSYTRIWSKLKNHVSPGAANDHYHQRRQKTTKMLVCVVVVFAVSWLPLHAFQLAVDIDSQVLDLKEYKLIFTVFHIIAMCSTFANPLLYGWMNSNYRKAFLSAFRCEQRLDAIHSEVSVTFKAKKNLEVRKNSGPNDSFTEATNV

A549 = experiment: In vitro cytological inhibitory activity (XTT); format: cell-based; settings: Homo sapiens, 72 hrs
Experimental: A549: Human lung cancer cell line;
as §1, §2

Interleukin IL-1, sequence (P13504 20-576): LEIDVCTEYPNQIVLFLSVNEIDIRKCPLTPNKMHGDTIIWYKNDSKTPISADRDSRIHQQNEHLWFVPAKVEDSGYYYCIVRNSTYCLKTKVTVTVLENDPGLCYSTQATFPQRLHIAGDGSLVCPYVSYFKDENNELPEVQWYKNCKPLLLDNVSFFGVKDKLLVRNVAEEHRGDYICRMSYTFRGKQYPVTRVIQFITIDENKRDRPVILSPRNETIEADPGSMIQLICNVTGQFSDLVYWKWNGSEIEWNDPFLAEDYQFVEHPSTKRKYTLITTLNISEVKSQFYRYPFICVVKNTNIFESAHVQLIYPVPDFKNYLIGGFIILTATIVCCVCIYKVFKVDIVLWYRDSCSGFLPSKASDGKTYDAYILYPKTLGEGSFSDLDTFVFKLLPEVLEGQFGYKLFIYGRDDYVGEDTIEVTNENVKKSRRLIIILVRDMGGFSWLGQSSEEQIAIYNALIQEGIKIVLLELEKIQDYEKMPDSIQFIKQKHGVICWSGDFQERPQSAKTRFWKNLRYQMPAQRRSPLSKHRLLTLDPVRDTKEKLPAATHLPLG

| Structure (SMILES) | inhibition at 10 µM (Interleukin IL-1) [%] | inhibitory rates on the listed non-kinase drug target ligands [1] | inhibition at 10 µM [2] [%] | inhibition at 10 µM [3] [%] | Inhibitory rate (%), Phorbol Ester (Phorbol Ester) [%] | IC50 (Lovo) [nM] | inhibition at 10 µM (Prostanoid EP4) [%] | inhibition at 10 µM (Glutamate, NMDA, Glycine) [%] | Inhibitory rate (%), Calcium Channel L-Type, Benzothiazepine [4] [%] | inhibition at 10 µM (Adrenergic α1A) [%] | IC50 (MCF-7) [nM] | inhibition at 10 µM [5] [%] | inhibition at 10 µM (Bradykinin B2) [%] | Inhibitory rate (%), GABAA, Muscimol, Central (GABAA, Muscimol, Central) [%] | Inhibitory rate (%), GABAA, Flunitrazepam, Central [6] [%] | Inhibitory rate (%), Nicotinic Acetylcholine (Nicotinic Acetylcholine) [%] | inhibition at 10 µM (Neuropeptide Y Y2) [%] | IC50 (A549) [nM] |
| --- | --- | --- | --- | --- | --- | --- | --- | --- | --- | --- | --- | --- | --- | --- | --- | --- | --- | --- |
| Nc1ccc(-c2ccc3ncc4c(=O)[nH]c(=O)n(-c5cccc(C(F)(F)F)c5)c4c3n2)cn1 [Compound 5, 9-(6-aminopyridin-3-yl)-1-(3-(trifluoromethyl)phenyl)pyrimido[5,4-c][1,5]naphthyridine-2,4(1H,3H)-dione] | 11 | less than 50% | -5 | 1 | 27 | 50.1 | 19 | 29 | 15 | 13 | 28.2 | 25 | 24 | 18 | 34 | 7 | 10 |  |
| O=c1[nH]c(=O)n(-c2cccc(C(F)(F)F)c2)c2c1cnc1ccc(-c3cnc4[nH]ccc4c3)nc12 [Compound 30, 9-(1H-pyrrolo[2,3-b]pyridin-5-yl)-1-(3-(trifluoromethyl)phenyl)pyrimido[5,4-c][1,5]naphthyridine-2,4(1H,3H)-dione] |  |  |  |  |  |  |  |  |  |  |  |  |  |  |  |  |  | 107 |
